How the values were obtained:
Assay type in all cases: in vivo, mouse
[1] = test system: ovariectomy model mice; experiment: Forced swimming test, modified (Test Example 2); details: oral for 14 days; for Immobility Time (second) Mean: 2 hours after last dose, 2nd minute to 4th minute, mean of 6 animals; for antidepressant effect: conclusion from Table 1 and FIG. 11
Description: Test Example 1 was partly modified as below, and a forced swimming test was performed to evaluate an antidepressant effect using the compounds (DDA-7 and DDA-14 to DDA-16) prepared in Preparation Examples 3 to 6 as test compounds. Regarding DDA-14 and DDA-15, a naturally occurring racemic form thereof has been reported, and thus, similarly to the mixture ratio by weight thereof, DDA-14 and DDA-15 were mixed at the ratio of 3:1 and prepared (2E,9S+9R)-9-hydroxy-2-decenoic acid (racemic form).
The experimental animals (ovariectomy model mice), to which each test compound was administered for 14 days (the first day of the administration was the following day after the day the ovaries were removed), were forced to swim. A 0.32 mg amount of compound DDA-7, 0.29 mg and 0.088 mg of DDA-14 and DDA-15, respectively, and 0.29 mg of DDA-16 were each individually dissolved in 80 ml of ion exchange water for administration. On the 14th day from the day each test compound administration was commenced, and 2 hours after the test compound was orally administered, each of the experimental animals was placed into a water tank, and the swimming time was measured for 10 minutes (test group). As a control experiment, the same procedure was performed as above, except that distilled water for injection was orally administered in place of the test compounds to each of the experimental animals (ovariectomy model mouse) in an amount of 0.1 ml per 10 g of body weight (control group).
The ten-minute swimming time was divided into one-minute periods to conduct analysis.

[2] = test system: ovariectomy model mice; experiment: Forced swimming test (Test Example 1)
Description: A forced swimming test has been widely used in the preclinical assessment of the antidepressant effect, and clinically effective antidepressants are known to shorten the immobility time (Porsort et al., Nature, 266, 730-732, 1977).
Therefore, the D4-II-3E-4 fraction ((2E)-9,10-dihydroxy-2-decenoic acid) prepared in Preparation Example 1 was administered to the animal model to undergo a forced swimming test (Nature, 266:730-732, 1977), and the antidepressant effect of the compound was evaluated.
ICR female mice (9 weeks old; weight: 29 to 33 g) were used as experimental animals. All of the mice were group-housed (10 mice per cage), and the feed and white flake bedding were exchanged once per week. The surgery to remove the ovaries was performed according to the following method.
Under pentobarbital anesthesia (65 mg/kg, i.p.), a 5 mm incision was made in the dorsal abdomen of a mouse, and the ovaries was temporarily exposed to the outside of the body. After ligation between the ovaries and uterus end (i.e. oviducts), the ovaries were dissected. Thereafter, the oviducts were promptly returned to the intraperitoneal cavity, and the abdominal wall and the skin were sutured.
A 0.25 mg amount of the D4-II-3E-4 fraction (a freeze-dried product) prepared in Preparation Example 1 was dissolved in 50 ml of ion exchange water to prepare a suspension. […]
Water at a temperature of 25° C. was introduced into a clear measuring cylinder made of polycarbonate (inner diameter: 10 cm; height: 25 cm) so that the water surface level was adjusted to 10 cm from the bottom. Each mouse was forced to swim for 6 minutes while being recorded by a high-sensitivity video system. Thereafter, the recorded image was observed, and by means of an event recorder, the time (in seconds) during which the mouse was floating in an immobile state was measured (an analysis was made for the duration of the 4 minutes from the second minute onward).

[3] = test system: ovariectomy model mice; experiment: Uterus weight measurement after forced swimming test (Test Example 1); details: dose that shortens the immobility time, wet weight, FIG. 9
Description: After conducting the forced swimming test (after completing the observation of the immobility time), an overdose of pentobarbital (100 mg/kg or more) was administered to each of the mice to cause them to stop breathing, and the mice were sacrificed. Then, the uterus was collected from each of the mice through an incision in the abdomen. The collected uterus was spread onto a filter paper, and after the serosa and blood vessel adhering to the uterus were removed, the weight of the uterus was promptly measured on a wet basis with an analytical balance.

CC(O)CCCCC/C=C/C(=O)O (racemic) [DDA14 + DDA15, (2E,9S+9R)-9-hydroxy-2-decenoic acid]
Immobility Time (second) Mean [1]: 98.82 s
antidepressant effect [1]: exhibit an antidepressant effect

O=C(O)C=CCCCCCCCO [10-hydroxydecenoic acid, reference compound]
antidepressant effect ([2]; oral 70, 140, 210 mg/kg/day, FIG. 10): does not exhibit an antidepressant effect

O=C(O)/C=C/CCCCCC(O)CO (stereo not shown) [D4-II-3E-4 fraction, (2E)-9,10-dihydroxy-2-decenoic acid]
uterus weight compared with control group [3]: a difference in the uterus weights was not recognized
immobility time compared with control group ([2]; 0.25 mg in 50 ml water, 0.1 ml per 10 g body weight orally once a day for 2 weeks, 4 minutes from the second minute onward, FIG. 8): significantly shorter
antidepressant effect ([2]; oral, once a day for 2 weeks, conclusion from FIG. 8): exhibits an antidepressant effect

O=C(O)/C=C\CCCCC[C@@H](O)CO [DDA-7, (2Z,9R)-9,10-dihydroxy-2-decenoic acid]
Immobility Time (second) Mean [1]: 80.14 s
antidepressant effect [1]: exhibit an antidepressant effect

CC(=O)OCCCC/C=C/C(=O)O [DDA-16, (2E)-7-acetoxy-2-heptenoic acid]
Immobility Time (second) Mean [1]: 87.14 s
antidepressant effect [1]: exhibit an antidepressant effect

Reference: patent publication US8119839B2, “Carboxylic acid and antidepressant composition containing the same as active ingredient” (Yamada Apiculture Center, Inc., priority 2007, dated 2012)
